Data set [1] has as its system Mycobacterium tuberculosis. Kind of data set: Antitubercular activity against Mycobacterium tuberculosis assessed as inhibition of bacterial growth. Type of data set: functional.
Data set [2] relates to Mycobacterium tuberculosis. Kind of data set: Antitubercular activity against Mycobacterium tuberculosis H37RvMA assessed as inhibition of bacterial growth by Alamar blue dye based broth microdilution method. Type of data set: functional. On the technique in general: Resazurin is reduced to fluorescent resorufin, in cell work by metabolically active cells.
The test system of data set [3] is Mycobacterium tuberculosis. Kind of data set: Antitubercular activity against Mycobacterium tuberculosis H37Ra assessed as inhibition of bacterial growth. Type of data set: functional.
Data set [4] in a line: Clearance in human liver microsomes. Type of data set: ADME, Microsome.
Data set [5] deals with T1, Cytochrome P450 3A4 (Homo sapiens, UniProt P08684). Kind of data set: Inhibition of CYP3A4 (unknown origin) using testosterone as substrate. The format is ADME.
Data set [6] in a line: Clearance in mouse. Type of data set: ADME, organism-based. To be noted: in vivo.
Data set [7] concerns the target T1, Cytochrome P450 3A4. Kind of data set: Inhibition of CYP3A4 (unknown origin). Type of data set: ADME.
A further data set has as its target T2, Cytochrome P450 1A2 (Homo sapiens, UniProt P05177).
T2 sequence (P05177 whole entry): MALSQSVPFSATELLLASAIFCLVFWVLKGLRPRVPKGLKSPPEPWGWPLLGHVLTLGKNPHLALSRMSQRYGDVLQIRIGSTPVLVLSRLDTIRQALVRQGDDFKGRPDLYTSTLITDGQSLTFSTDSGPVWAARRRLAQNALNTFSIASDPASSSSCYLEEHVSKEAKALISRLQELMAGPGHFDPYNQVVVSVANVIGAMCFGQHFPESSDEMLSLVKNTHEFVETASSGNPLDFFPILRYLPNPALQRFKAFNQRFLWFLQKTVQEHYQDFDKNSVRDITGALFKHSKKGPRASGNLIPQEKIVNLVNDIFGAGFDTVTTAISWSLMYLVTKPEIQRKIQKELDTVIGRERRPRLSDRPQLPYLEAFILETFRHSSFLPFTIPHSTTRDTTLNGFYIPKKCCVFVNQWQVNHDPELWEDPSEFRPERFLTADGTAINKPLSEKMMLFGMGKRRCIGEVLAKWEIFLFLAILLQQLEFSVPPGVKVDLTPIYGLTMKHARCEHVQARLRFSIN
Kind of data set: Inhibition of CYP1A2 (unknown origin). Type of data set: ADME.

Another data set deals with T3, Cytochrome P450 2C8 (Homo sapiens, UniProt P10632).
T3 sequence (P10632 whole entry): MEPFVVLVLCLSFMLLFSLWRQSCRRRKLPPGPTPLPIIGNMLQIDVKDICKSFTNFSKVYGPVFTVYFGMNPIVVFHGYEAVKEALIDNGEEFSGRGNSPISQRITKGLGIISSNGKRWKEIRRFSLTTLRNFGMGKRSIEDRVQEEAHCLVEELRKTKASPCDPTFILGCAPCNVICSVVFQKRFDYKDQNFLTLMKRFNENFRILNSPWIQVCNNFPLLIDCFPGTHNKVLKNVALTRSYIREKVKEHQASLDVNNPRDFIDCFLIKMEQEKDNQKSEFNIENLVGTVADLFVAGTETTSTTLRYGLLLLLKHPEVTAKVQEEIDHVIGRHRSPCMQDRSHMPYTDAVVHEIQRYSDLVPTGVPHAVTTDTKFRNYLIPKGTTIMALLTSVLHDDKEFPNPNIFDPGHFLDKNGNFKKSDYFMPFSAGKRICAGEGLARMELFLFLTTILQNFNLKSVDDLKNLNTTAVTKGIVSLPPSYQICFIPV
Kind of data set: Inhibition of CYP2C8 (unknown origin). The format is ADME.

Another data set addresses Cytochrome P450 2D6 (Homo sapiens, UniProt P10635). Kind of data set: Inhibition of CYP2D6 (unknown origin). Type of data set: ADME.
The nature of data set [8]: Lipophilicity, logD of the compound measured at pH 7.4. Type of data set: physicochemical. To be noted: buffer.
The next data set deals with hERG (Homo sapiens, UniProt Q12809). Kind of data set: Inhibition of hERG at 10 uM relative to control. The format is toxicity.
The nature of data set [9]: Oral bioavailability in mouse. The format is ADME, organism-based. To be noted: in vivo.
For data set [10], the target named is Inosine-5'-monophosphate dehydrogenase (Mycobacterium tuberculosis (strain ATCC 25618 / H37Rv), UniProt P9WKI7). Kind of data set: Inhibition of Mycobacterium tuberculosis GuaB.
For another data set, the system named is IMPDH. Kind of data set: Inhibition of human IMPDH. The format is toxicity.
Data set [11] is described as follows: Cytotoxicity against human primary hepatocytes in presence of serum. The format is toxicity, cell-based, Hepatocyte.
A short description of data set [12]: Cytotoxicity against human primary hepatocytes in absence of serum. The format is toxicity, cell-based, Hepatocyte.
Data set [13] relates to Mycobacterium tuberculosis. Kind of data set: Antitubercular activity against Mycobacterium tuberculosis H37Rv assessed as inhibition of bacterial growth. Type of data set: functional.
For another data set, the target named is Cytochrome P450 2C9 (Homo sapiens, UniProt P11712). Kind of data set: Inhibition of CYP2C9 (unknown origin). The format is ADME.
Data set [14] has as its system Mycobacterium tuberculosis. Kind of data set: Antitubercular activity against Mycobacterium tuberculosis ATCC 27294 assessed as inhibition of bacterial growth measured after 1 week by broth microdilution method. The format is functional. To be noted: ATCC 27294, 168 h, time 1 weeks. (In broth dilution the organism is exposed to a series of concentrations in liquid medium.)

For orientation: MIC means the smallest concentration in the dilution series that meets the test's criterion for growth inhibition. A word on the IC50: it is the concentration at which inhibition is half-maximal. The clearance is the volume of plasma or blood freed of the substance per unit of time. One may read the logD as lipophilicity at a set pH, counting ionised and neutral species. The low end stands for lower lipophilicity, the high end for higher lipophilicity. For orientation: inhibition means the change of the read-out against control, counted positive when it falls. The low end stands for a response near the control, the high end for a response far below the control. The term bioavailability denotes dose-corrected exposure relative to a reference, in per cent. A high value points to good availability.

The structures appear in SMILES notation. Converted amounts (≈) assume the structure as drawn.

T1 sequence (P08684 whole entry): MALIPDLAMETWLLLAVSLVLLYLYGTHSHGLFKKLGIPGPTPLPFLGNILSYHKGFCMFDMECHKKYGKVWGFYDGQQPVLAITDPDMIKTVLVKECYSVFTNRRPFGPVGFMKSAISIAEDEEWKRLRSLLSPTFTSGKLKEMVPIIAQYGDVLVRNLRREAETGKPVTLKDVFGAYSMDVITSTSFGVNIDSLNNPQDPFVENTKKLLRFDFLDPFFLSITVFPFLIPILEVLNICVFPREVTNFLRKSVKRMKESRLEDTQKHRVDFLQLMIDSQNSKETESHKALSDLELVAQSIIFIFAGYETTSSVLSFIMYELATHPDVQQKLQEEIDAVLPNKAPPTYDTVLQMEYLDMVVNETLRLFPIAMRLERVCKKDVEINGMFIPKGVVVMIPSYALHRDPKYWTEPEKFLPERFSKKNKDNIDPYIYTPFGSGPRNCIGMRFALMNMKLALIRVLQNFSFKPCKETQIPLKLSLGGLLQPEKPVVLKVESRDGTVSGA
hERG, sequence (Q12809 whole entry): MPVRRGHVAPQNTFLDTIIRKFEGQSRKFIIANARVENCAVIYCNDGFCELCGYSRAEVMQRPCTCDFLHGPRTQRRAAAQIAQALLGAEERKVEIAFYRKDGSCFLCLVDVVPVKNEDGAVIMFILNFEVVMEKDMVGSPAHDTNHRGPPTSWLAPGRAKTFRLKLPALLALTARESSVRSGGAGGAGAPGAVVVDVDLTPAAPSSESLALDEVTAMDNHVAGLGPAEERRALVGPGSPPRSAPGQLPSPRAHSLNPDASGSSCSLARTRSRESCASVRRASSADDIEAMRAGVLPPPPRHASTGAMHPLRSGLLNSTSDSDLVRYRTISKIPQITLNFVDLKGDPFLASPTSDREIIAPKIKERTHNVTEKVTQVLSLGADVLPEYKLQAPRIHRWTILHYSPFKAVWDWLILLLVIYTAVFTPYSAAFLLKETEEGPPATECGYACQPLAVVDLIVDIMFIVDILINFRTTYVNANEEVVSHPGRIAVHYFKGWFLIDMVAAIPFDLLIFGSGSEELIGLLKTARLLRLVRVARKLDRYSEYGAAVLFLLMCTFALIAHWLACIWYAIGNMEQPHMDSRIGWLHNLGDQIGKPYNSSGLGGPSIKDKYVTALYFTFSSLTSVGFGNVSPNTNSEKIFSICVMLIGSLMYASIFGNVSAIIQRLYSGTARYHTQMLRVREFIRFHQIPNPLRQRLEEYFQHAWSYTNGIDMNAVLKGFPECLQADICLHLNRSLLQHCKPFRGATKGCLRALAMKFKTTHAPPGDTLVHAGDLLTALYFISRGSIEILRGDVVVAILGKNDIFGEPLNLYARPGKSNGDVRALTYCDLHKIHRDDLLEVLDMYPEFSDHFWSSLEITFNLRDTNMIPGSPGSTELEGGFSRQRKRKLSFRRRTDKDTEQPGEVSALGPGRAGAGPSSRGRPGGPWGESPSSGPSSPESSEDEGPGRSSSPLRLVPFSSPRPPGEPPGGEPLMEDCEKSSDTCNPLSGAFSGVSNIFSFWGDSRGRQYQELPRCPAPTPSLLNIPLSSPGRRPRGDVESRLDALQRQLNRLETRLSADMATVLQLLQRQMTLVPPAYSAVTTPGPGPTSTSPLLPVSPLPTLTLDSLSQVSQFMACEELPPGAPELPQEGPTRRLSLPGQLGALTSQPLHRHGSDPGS
Cytochrome P450 2D6, sequence (P10635 whole entry): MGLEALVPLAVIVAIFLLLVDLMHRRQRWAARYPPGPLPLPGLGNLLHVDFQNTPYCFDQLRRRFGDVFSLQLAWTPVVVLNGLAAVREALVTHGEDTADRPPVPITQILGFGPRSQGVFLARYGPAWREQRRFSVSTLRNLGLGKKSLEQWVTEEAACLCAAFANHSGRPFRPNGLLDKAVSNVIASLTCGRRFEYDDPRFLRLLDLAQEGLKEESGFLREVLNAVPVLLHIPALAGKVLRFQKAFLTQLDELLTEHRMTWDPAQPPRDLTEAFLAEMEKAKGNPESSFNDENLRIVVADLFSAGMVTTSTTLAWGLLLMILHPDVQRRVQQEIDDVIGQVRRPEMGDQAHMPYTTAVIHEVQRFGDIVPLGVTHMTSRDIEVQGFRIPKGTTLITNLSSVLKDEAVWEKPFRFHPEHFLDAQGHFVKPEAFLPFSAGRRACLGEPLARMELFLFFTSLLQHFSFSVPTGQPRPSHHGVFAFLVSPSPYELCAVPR
Cytochrome P450 2C9, sequence (P11712 whole entry): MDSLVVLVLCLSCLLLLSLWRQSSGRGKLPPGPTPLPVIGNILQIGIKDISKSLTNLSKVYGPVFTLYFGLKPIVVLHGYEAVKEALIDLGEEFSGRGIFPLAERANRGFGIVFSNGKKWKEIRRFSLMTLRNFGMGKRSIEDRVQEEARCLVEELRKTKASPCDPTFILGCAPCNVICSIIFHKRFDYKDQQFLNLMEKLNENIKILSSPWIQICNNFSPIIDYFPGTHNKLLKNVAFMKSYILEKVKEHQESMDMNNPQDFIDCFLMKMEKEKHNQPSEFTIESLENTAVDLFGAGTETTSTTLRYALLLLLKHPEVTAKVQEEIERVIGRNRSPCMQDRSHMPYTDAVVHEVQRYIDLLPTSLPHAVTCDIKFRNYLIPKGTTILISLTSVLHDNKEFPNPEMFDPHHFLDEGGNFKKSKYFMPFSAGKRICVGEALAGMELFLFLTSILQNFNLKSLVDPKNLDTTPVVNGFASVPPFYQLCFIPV
Inosine-5'-monophosphate dehydrogenase, sequence (P9WKI7 whole entry): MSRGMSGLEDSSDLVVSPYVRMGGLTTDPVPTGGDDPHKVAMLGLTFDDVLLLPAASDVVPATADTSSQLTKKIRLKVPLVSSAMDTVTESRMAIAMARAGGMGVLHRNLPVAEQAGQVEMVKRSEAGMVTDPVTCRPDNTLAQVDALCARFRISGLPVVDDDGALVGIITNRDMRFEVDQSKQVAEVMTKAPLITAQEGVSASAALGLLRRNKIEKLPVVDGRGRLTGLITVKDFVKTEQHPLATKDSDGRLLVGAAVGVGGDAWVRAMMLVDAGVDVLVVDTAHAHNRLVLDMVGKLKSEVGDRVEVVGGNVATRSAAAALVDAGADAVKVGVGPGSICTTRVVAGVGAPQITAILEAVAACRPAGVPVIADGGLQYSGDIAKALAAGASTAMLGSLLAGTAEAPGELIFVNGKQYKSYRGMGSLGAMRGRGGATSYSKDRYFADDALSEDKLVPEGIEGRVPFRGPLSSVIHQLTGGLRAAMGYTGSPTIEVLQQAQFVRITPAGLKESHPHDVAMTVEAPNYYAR

On to `Cc1n[nH]c(C)c1S(=O)(=O)Nc1ccc2c[nH]nc2c1`, for which the MIC in data set [1] came out at 2 µM (≈ 0.583 µg/mL).
Turning to `O=C(C1CCCCC1)N1CCN(S(=O)(=O)c2cccc3cnccc23)CC1`, the MIC in data set [2] worked out at 2 µM (≈ 0.775 µg/mL).
As to `C[C@@H](Oc1ccc(-c2ccn[nH]2)cc1)c1cncc(-c2nc(Cl)c[nH]2)c1`, the MIC in data set [3] amounted to 0.11 µM (≈ 0.0402 µg/mL). For the same molecule, the CLhep predicted in [4] is 12 mL/min/kg. Besides, 0.24 µM corresponded to half-maximal inhibition at Cytochrome P450 3A4 [5] (IC50).
As to `C[C@@H](Oc1ccc2c(=O)cc3n(c2c1)CCOC3)c1cc(-n2ccc(Cl)n2)cnn1`, the MIC in data set [3] came out at 0.26 µM (≈ 0.11 µg/mL). The CLhep predicted in [4] is 5.3 mL/min/kg. In data set [6], this molecule gave a clearance of 35 mL/min/kg. Besides, the IC50 against Cytochrome P450 3A4 [7] was > 10 µM; against Cytochrome P450 1A2 it was > 10 µM; against Cytochrome P450 2C8, > 10 µM; against Cytochrome P450 2D6, > 10 µM; against Cytochrome P450 3A4 [5] it was > 10 µM; in data set [10], 0.0017 µM. Moreover, the IC50 was > 50 µM in the data set on IMPDH, > 100 µM in [11] and > 100 µM in [12]. Besides, the logD in data set [8] worked out at 2.3. For the same molecule, the inhibition at 10 µM against hERG was determined as 28%. The bioavailability in [9] was 5.2%.
`C[C@@H](Oc1ccc2ncc3c(c2c1)CCOC3)c1cncc(-c2nc(Cl)c[nH]2)c1`: the values for the MIC in data set [3] and in data set [13] were < 0.003 µM and 0.039 µM (≈ 0.0159 µg/mL), respectively. The CLhep predicted in data set [4] was 19 mL/min/kg. For the same molecule, the IC50 on Cytochrome P450 3A4 [7] was < 10 µM; on Cytochrome P450 1A2 it was < 10 µM; against Cytochrome P450 2C8, < 10 µM; on Cytochrome P450 2C9, < 10 µM; at Cytochrome P450 2D6, < 10 µM; on Cytochrome P450 3A4 [5], 0.57 µM.
`C[C@@H](Oc1ccc2c(=O)cc3n(c2c1)CCOC3)c1cncc(-c2nc(C(F)(F)F)c[nH]2)c1`: in data set [3], the MIC stood at 0.099 µM (≈ 0.0452 µg/mL). Also, the CLhep predicted in data set [4] was 16 mL/min/kg. The same molecule yielded an IC50 at Cytochrome P450 3A4 [5] of 4.3 µM. Moreover, the logD in data set [8] turned out to be 3.
Consider `C/C(=N/O)c1cccc(C(C)(C)NC(=O)Nc2ccc(Cl)c(C(=O)N(C)C)c2)c1`, for which the MIC in data set [14] was 16 µM (≈ 6.67 µg/mL).
As for `C[C@@H](Oc1ccc2c(=O)cc3n(c2c1)CCOC3)c1cncc(-c2nc(C#N)c[nH]2)c1`, in [3], the minimal inhibitory concentration (MIC) turned out to be 0.39 µM (≈ 0.161 µg/mL). For the same molecule, the CLhep predicted in [4] was 5.5 mL/min/kg. In addition, the IC50 on Cytochrome P450 3A4 [5] was > 10 µM. In data set [8], this molecule returned a logD of 2.1.
Turning to `C[C@@H](Oc1cccc(-c2ccn[nH]2)c1)c1cncc(-c2nc(Cl)c[nH]2)c1`, the MIC in [3] turned out to be 3.1 µM (≈ 1.13 µg/mL). Moreover, the CLhep predicted in [4] was 16 mL/min/kg. Further, the IC50 against Cytochrome P450 3A4 [5] came to 0.32 µM.
Consider `C[C@@H](Oc1cc(-c2ccn[nH]2)cc(N2CCOCC2)c1)c1cncc(-c2nc(Cl)c[nH]2)c1`, for which the MIC in [3] came to 0.18 µM (≈ 0.0812 µg/mL). Further, the CLhep predicted in [4] was 16 mL/min/kg.
Take `C[C@@H](Oc1ccc2c(=O)cc3n(c2c1)CCOC3)c1cncc(-n2ccc(C#N)n2)c1`: in [3], the minimal inhibitory concentration (MIC) came to 0.18 µM (≈ 0.0744 µg/mL). In data set [4], the CLhep predicted was 11 mL/min/kg. Moreover, the logD in data set [8] was 1.7.
For `C[C@H](Nc1ccc2ncc3c(c2c1)CCOC3)C(=O)Nc1ccc(Cl)nc1`, the MIC came to 0.035 µM (≈ 0.0134 µg/mL) in data set [3] and 0.058 µM (≈ 0.0222 µg/mL) in [13]. In addition, the CLhep predicted in data set [4] was 16 mL/min/kg. Also, the clearance in data set [6] is 132 mL/min/kg.
For the molecule `C[C@@H](Oc1ccc2c(=O)cc3n(c2c1)CCOC3)c1cc(-n2ccc(C(F)(F)F)n2)cnn1`, in data set [3], the MIC stood at 0.58 µM (≈ 0.265 µg/mL). Moreover, the CLhep predicted in data set [4] is 7 mL/min/kg. Further, the IC50 against Cytochrome P450 3A4 [5] is > 10 µM. The logD in [8] was 2.1.
The corresponding values for `C[C@@H](Oc1ccc2c(=O)cc3n(c2c1)CCOC3)c1cncc(-n2ccc(Cl)n2)c1` are 0.091 µM (≈ 0.0385 µg/mL), 16 mL/min/kg, > 10 µM and 2.8.
Regarding `C[C@@H](Oc1ccc2c(=O)cc3n(c2c1)CCOC3)c1cc(-n2ccc(OC(F)F)n2)cnn1`, the MIC in [3] turned out to be 0.29 µM (≈ 0.132 µg/mL). Also, in data set [4], the CLhep predicted was < 3.9 mL/min/kg. In addition, the IC50 against Cytochrome P450 3A4 [5] is > 10 µM. In data set [8], the logD was 1.6. Moreover, 10 µM produced 70% inhibition on hERG.
For the molecule `C[C@@H](Oc1ccc2ncc(CO)cc2c1)c1cncc(-c2nc(Cl)c[nH]2)c1`, in data set [3], the MIC was 0.007 µM (≈ 0.00267 µg/mL). The CLhep predicted in [4] was 12 mL/min/kg. Further, at Cytochrome P450 3A4 [5], 2.1 µM corresponded to half-maximal inhibition (IC50).
Turning to `C[C@@H](Oc1ccc2c(=O)cc3n(c2c1)CCOC3)c1cncc(-n2ccc(C(F)(F)F)n2)c1`, the MIC in data set [3] worked out at 0.29 µM (≈ 0.132 µg/mL). Moreover, the CLhep predicted in [4] was 18 mL/min/kg. Besides, on Cytochrome P450 3A4 [5], the IC50 was > 10 µM. For the same molecule, in data set [8], the logD was found to be 3.1.
Consider `CC(Oc1ccc2c(=O)cc3n(c2c1)CCOC3)c1cncc(-c2nc(Cl)c[nH]2)c1` (racemic), for which the MIC in data set [3] was 0.12 µM (≈ 0.0507 µg/mL). In data set [4], the CLhep predicted is 13 mL/min/kg. The molecule also had an IC50 against Cytochrome P450 3A4 [5] of 3.7 µM. The logD in [8] was determined as 2.2.
